Results from ChEMBL document CHEMBL1201862, “PubChem BioAssay data set” (2004).
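Cells were grown in 96-well plates and exposed to each compound for 48 hours at five concentrations; endpoints were interpolated linearly between bracketing concentrations, or set to the highest concentration if not reached. Here, GI50 denotes the concentration required for 50% inhibition of growth.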 Activity calls are given as the source filed them. Rule as the data show it: active = GI50 up to about 1.1 µM and inactive = higher.

Key:
Assay in all cases: DTP human tumour cell line panel, 48 h
[1] = tested on: 786-0
[2] = tested on: A498
[3] = tested on: A549
[4] = tested on: ACHN
[5] = tested on: CAKI-1
[6] = tested on: CCRF-CEM
[7] = tested on: COLO 205
[8] = tested on: DLD-1
[9] = tested on: DMS-114
[10] = tested on: DMS-273
[11] = tested on: EKVX
[12] = tested on: HCC 2998
[13] = tested on: HCT-116
[14] = tested on: HCT-15
[15] = tested on: HL-60
[16] = tested on: HOP-18
[17] = tested on: HOP-62
[18] = tested on: HOP-92
[19] = tested on: HT-29
[20] = tested on: IGROV-1
[21] = tested on: K562
[22] = tested on: KM-20L2
[23] = tested on: KM12
[24] = tested on: LOX IMVI
[25] = tested on: LXFL 529
[26] = tested on: M14
[27] = tested on: M19-MEL
[28] = tested on: MOLT-4
[29] = tested on: Malme-3M
[30] = tested on: NCI-H226
[31] = tested on: NCI-H23
[32] = tested on: NCI-H460
[33] = tested on: OVCAR-3
[34] = tested on: OVCAR-4
[35] = tested on: OVCAR-5
[36] = tested on: OVCAR-8
[37] = tested on: RPMI-8226
[38] = tested on: RXF 393
[39] = tested on: RXF 631
[40] = tested on: SF-268
[41] = tested on: SF-295
[42] = tested on: SF-539
[43] = tested on: SK-MEL-28
[44] = tested on: SK-MEL-2
[45] = tested on: SK-MEL-5
[46] = tested on: SK-OV-3
[47] = tested on: SN12C
[48] = tested on: SNB-19
[49] = tested on: SNB-75
[50] = tested on: SNB-78
[51] = tested on: SR
[52] = tested on: SW-620
[53] = tested on: TK-10
[54] = tested on: U-251
[55] = tested on: UACC-257
[56] = tested on: UACC-62
[57] = tested on: UO-31
[58] = tested on: XF498
[59] = tested on: NCI-H522

Measured: GI50

N#CCN1C(=O)c2cc([N+](=O)[O-])cc3cc([N+](=O)[O-])cc(c23)C1=O
inactive: [1] 11.8 µM | [2] 35.6 µM | [3] 18.6 µM | [4] 13.2 µM | [5] 23.9 µM | [6] 2.77 µM | [7] 11.4 µM | [8] 7.05 µM | [9] 15.2 µM | [10] 23.9 µM | [11] 23.6 µM | [12] 15 µM | [13] 7.18 µM | [15] 3.21 µM | [16] 64.3 µM | [17] 18.8 µM | [18] 17.1 µM | [19] 16.8 µM | [20] 13.2 µM | [21] 5.68 µM | [22] 12.9 µM | [23] 11.2 µM | [24] 6.41 µM | [25] 9.23 µM | [26] 17 µM | [27] 14.3 µM | [28] 2.38 µM | [29] 14.8 µM | [30] 21.6 µM | [31] 15.9 µM | [32] 14.9 µM | [33] 13.4 µM | [34] 14.8 µM | [35] 18.9 µM | [36] 13.8 µM | [37] 5.51 µM | [38] 8.28 µM | [39] 20 µM | [40] 17 µM | [41] 30.5 µM | [42] 14.6 µM | [43] 19 µM | [44] 3.94 µM | [45] 15.6 µM | [46] 39.6 µM | [47] 13.1 µM | [48] 24.2 µM | [49] 26.1 µM | [50] 16.7 µM | [51] 1.36 µM | [52] 7.53 µM | [53] 27.7 µM | [54] 17.9 µM | [55] 15.1 µM | [56] 12.4 µM | [57] 13.8 µM | [58] 12.2 µM
6.71 µM: [14]

CCOC(=O)/C(ON)=C(/CC/C(C(=O)OC)=C(\ON)C(=O)OCC)C(=O)OC
inactive: [1] > 100 µM | [2] > 100 µM | [3] > 100 µM | [4] > 100 µM | [5] > 100 µM | [6] > 100 µM | [7] > 100 µM | [8] > 100 µM | [9] > 100 µM | [10] > 100 µM | [11] > 100 µM | [12] > 100 µM | [13] > 100 µM | [15] > 100 µM | [16] > 100 µM | [17] > 100 µM | [18] > 100 µM | [19] > 100 µM | [20] > 100 µM | [21] > 100 µM | [22] > 100 µM | [23] > 100 µM | [24] > 100 µM | [25] > 100 µM | [26] > 100 µM | [27] > 100 µM | [28] > 100 µM | [29] > 100 µM | [30] > 100 µM | [31] > 100 µM | [32] > 100 µM | [59] > 100 µM | [33] > 100 µM | [34] > 100 µM | [35] > 100 µM | [36] > 100 µM | [37] > 100 µM | [38] > 100 µM | [39] > 100 µM | [40] > 100 µM | [41] > 100 µM | [42] > 100 µM | [43] > 100 µM | [44] > 100 µM | [45] > 100 µM | [46] > 100 µM | [47] > 100 µM | [48] > 100 µM | [49] > 100 µM | [50] > 100 µM | [51] > 100 µM | [52] > 100 µM | [53] > 100 µM | [54] > 100 µM | [55] > 100 µM | [56] > 100 µM | [57] > 100 µM | [58] > 100 µM
> 100 µM: [14]
